{"source": "ChEMBL document CHEMBL1125802", "about": "“Isolation and structure of the cell growth inhibitory constituents from the western Pacific marine sponge Axinella sp” (1991)", "key": {"P388 [1]": {"tested_on": "P388", "test": "Effect on P388 lymphocytic leukemia (PS system) cell growth […]", "format": "functional", "details": "Mus musculus, read-out: ED50 (the source's name)"}, "P388 [2]": {"tested_on": "P388", "test": "Effect on P388 lymphocytic leukemia (PS system) cell growth", "format": "functional", "details": "Mus musculus, read-out: ED50 (the source's name)"}, "P388 [3]": {"tested_on": "P388", "test": "Effect on change in life span of P388 lymphocytic leukemia (PS system) cell growth at 100 mg/kg", "format": "functional, Mus musculus"}, "P388 [4]": {"tested_on": "P388", "test": "T/C at 150 ug/kg", "format": "functional, Mus musculus"}, "P388 [5]": {"tested_on": "P388", "test": "T/C at 25 mg/kg", "format": "functional, Mus musculus"}}, "note": "Where a SMILES comes first, the peptide text is derived from it.", "data": [{"smiles": "CC(C)[C@@H]1NC(=O)[C@H](Cc2ccccc2)NC(=O)[C@@H]2CCCN2C(=O)[C@H](CC(N)=O)NC(=O)[C@H](C(C)C)NC(=O)[C@@H]2CCCN2C(=O)[C@H](C(C)C)NC1=O", "note": "(cyclo(FVVPVNP))", "values": [{"measurement": "EC50", "setting": "P388 [1]", "result": 0.21, "unit": "µg/mL"}]}, {"smiles": "CC(C)O.ClCCl", "values": [{"measurement": "EC50", "setting": "P388 [2]", "result": 2.5, "unit": "µg/mL"}, {"measurement": "Life span", "setting": "P388 [3]", "result": 10, "unit": "%"}]}, {"smiles": "C=C1C[C@@H]2CC[C@@]34C[C@H]5O[C@H]6[C@@H](O3)[C@H]3O[C@H](CC[C@@H]3O[C@H]6[C@H]5O4)CC(=O)O[C@@H]3[C@@H](C)[C@@H]4O[C@@H]5C[C@]6(C[C@@H]7O[C@]8(C[C@H](C)[C@@H]9O[C@@H]%10CC(C(O)CO)O[C@@H]%10C[C@@H]9O8)C[C@H](C)[C@@H]7O6)O[C@@H]5C[C@@H]4O[C@H]3C[C@H]3O[C@@H](CC[C@@H]1O2)C[C@@H](C)C3=C", "note": "(stereo not given in full) [HOMOHALICHONDRIN B]", "values": [{"measurement": "T/C", "setting": "P388 [4]", "result": 285}]}, {"smiles": "C=C1C[C@@H]2CC[C@@]34C[C@H]5O[C@H]6[C@@H](O3)[C@H]3O[C@H](CC[C@@H]3O[C@H]6[C@H]5O4)CC(=O)O[C@@H]3[C@@H](C)[C@@H]4O[C@@H]5C[C@]6(C[C@@H]7O[C@]8(C[C@H](C)[C@@H]9O[C@H]([C@@H](O)C[C@@H](O)CO)C[C@@H]9O8)C[C@H](C)[C@@H]7O6)O[C@@H]5C[C@@H]4O[C@H]3C[C@H]3O[C@@H](CC[C@@H]1O2)C[C@@H](C)C3=C", "note": "[HALICHONDRIN B]", "values": [{"measurement": "T/C", "setting": "P388 [5]", "result": 238}]}]}
